Key:
HIV-IIIb = assay: Test A: Antiviral Assay in MT4 Cells; assay type: cell-based, HIV-1; conditions: for inhibition at 0.2 µM / inhibition at 2 µM: Human immunodeficiency virus 1, IIIB, MT4, 120 h; for inhibition at 0.2 µM: read-out: % inhibition at 0.2 μM; for inhibition at 2 µM: read-out: % inhibition at 2 μM
Description: Test A: Antiviral Assay in MT4 Cells
(§1) MT-4 cells were next mixed with HIV-IIIb at an m.o.i of 0.003 for 1 hour, after which time 35 μL of virus/cell mixture (2000 cells) was immediately added to each well containing 40 μL of diluted compound. The plates were then incubated at 37° C. for 5 days. […] Cell lysis was carried out by incubating at room temperature for 10 min and then chemiluminescence was read.

[1] = Test B: Cytotoxicity Assay; assay type: cell-based; conditions: human, uninfected MT-4 cells, same protocol as Test A
Description: as §1
Test B: Cytotoxicity Assay
Compound cytotoxicity and the corresponding CC50 values was determined using the same protocol as described in the antiviral assay (Test A) except that uninfected cells were used.

| SMILES | inhibition at 0.2 µM (HIV-IIIb) [%] | inhibition at 2 µM (HIV-IIIb) [%] | CC50 at 5 days [1] [µM] | further results |
| --- | --- | --- | --- | --- |
| Cn1nc(NS(C)(=O)=O)c2c(Cl)ccc(-c3ccc(-c4cnn(C(C)(C)C)c4)nc3[C@H](Cc3cc(F)cc(F)c3)NC(=O)Cn3nc(C(F)F)c4c3C(F)(F)[C@@H]3C[C@H]43)c21 [Compound 168B, N—((S)-1-(6-(1-(tert-butyl)-1H-pyrazol-4-yl)-3-(4-chloro-1-methyl-3-(methylsulfonamido)-1H-indazol-7-yl)pyridin-2-yl)-2-(3,5-difluorophenyl)ethyl)-2-((3b-S,4aR)-3-(difluoromethyl)-5,5-difluoro-3b,4,4a,5-tetrahydro-1H-cyclopropa[3,4]cyclopenta[1,2-c]pyrazol-1-yl)acetamide] | 90 | 90 | > 53.2 |  |
| Cn1nc(NS(C)(=O)=O)c2c(Cl)ccc(-c3ccc(C#CC(C)(C)O)nc3[C@H](Cc3cccc(F)c3)NC(=O)Cn3nc(C(F)(F)F)c4c3C(F)(F)[C@@H]3C[C@H]43)c21 [Compound 187G, N—((S)-1-(3-(4-chloro-1-methyl-3-(methylsulfonamido)-1H-indazol-7-yl)-6-(3-hydroxy-3-methylbut-1-yn-1-yl)pyridin-2-yl)-2-(3-fluorophenyl)ethyl)-2-((3b-S,4aR)-5,5-difluoro-3-(trifluoromethyl)-3b,4,4a,5-tetrahydro-1H-cyclopropa[3,4]cyclopenta[1,2-c]pyrazol-1-yl)acetamide] | 84 | 84 | 19.8 |  |
| Cn1nc(NS(C)(=O)=O)c2cccc(-c3cnc(C#CC(C)(C)O)nc3[C@H](Cc3cc(F)cc(F)c3)NC(=O)Cn3nc(C(F)(F)F)c4c3C(F)(F)[C@@H]3C[C@H]43)c21 [Compound 41, 2-((3bS,4aR)-5,5-difluoro-3-(trifluoromethyl)-3b,4,4a,5-tetrahydro-1H-cyclopropa[3,4]cyclopenta[1,2-c]pyrazol-1-yl)-N—((S)-2-(3,5-difluorophenyl)-1-(2-(3-hydroxy-3-methylbut-1-yn-1-yl)-5-(1-methyl-3-(methylsulfonamido)-1H-indazol-7-yl)pyrimidin-4-yl)ethyl)acetamide] | 98 | 98 | 7.63 |  |
| C#Cc1ccc(-c2ccc(Cl)c3cnn(C)c23)c([C@H](Cc2cc(F)cc(F)c2)NC(=O)Cn2nc(C(F)F)c3c2C(F)(F)[C@@H]2C[C@H]32)n1 [Compound 136D, N—((S)-1-(3-(4-chloro-1-methyl-1H-indazol-7-yl)-6-ethynylpyridin-2-yl)-2-(3,5-difluorophenyl)ethyl)-2-((3b-S,4aR)-3-(difluoromethyl)-5,5-difluoro-3b,4,4a,5-tetrahydro-1H-cyclopropa[3,4]cyclopenta[1,2-c]pyrazol-1-yl)acetamide] |  |  | 7.43 |  |
| Cn1nc(NS(C)(=O)=O)c2cccc(-c3cnc([C@H](Cc4cc(F)cc(F)c4)NC(=O)Cn4nc(C(F)F)c5c4C(F)(F)[C@@H]4C[C@H]54)c(-c4cccc5c(NS(C)(=O)=O)nn(C)c45)n3)c21 [Compound 146I, N—((S)-1-(3,5-bis(1-methyl-3-(methylsulfonamido)-1H-indazol-7-yl)pyrazin-2-yl)-2-(3,5-difluorophenyl)ethyl)-2-((3b-S,4aR)-3-(difluoromethyl)-5,5-difluoro-3b,4,4a,5-tetrahydro-1H-cyclopropa[3,4]cyclopenta[1,2-c]pyrazol-1-yl)acetamide] |  |  | 33.5 |  |
| Cn1nc(NS(C)(=O)=O)c2c(Cl)ccc(-c3ccc(C#CC(C)(C)O)nc3[C@H](Cc3cc(F)cc(F)c3)NC(=O)Cn3nc(C(=O)O)c4c3C(F)(F)[C@@H]3C[C@H]43)c21 [Compound 147, (3bS,4aR)-1-(2-(((S)-1-(3-(4-chloro-1-methyl-3-(methylsulfonamido)-1H-indazol-7-yl)-6-(3-hydroxy-3-methylbut-1-yn-1-yl)pyridin-2-yl)-2-(3,5-difluorophenyl)ethyl)amino)-2-oxoethyl)-5,5-difluoro-3b,4,4a,5-tetrahydro-1H-cyclopropa[3,4]cyclopenta[1,2-c]pyrazole-3-carboxylic acid] |  |  | > 53.2 |  |
| NC(=O)c1ccc(-c2cnc3[nH]ccc3c2)c([C@H](Cc2cc(F)cc(F)c2)NC(=O)Cn2nc(C(F)F)c3c2C(F)(F)CCC3(F)F)n1 [Compound 1B, (S)-6-(1-(2-(3-(difluoromethyl)-4,4,7,7-tetrafluoro-4,5,6,7-tetrahydro-1H-indazol-1-yl)acetamido)-2-(3,5-difluorophenyl)ethyl)-5-(1H-pyrrolo[2,3-b]pyridin-5-yl)picolinamide] | 17 |  |  |  |
| O=C(Cn1nc(C(F)F)c2c1C(F)(F)CCC2(F)F)N[C@@H](Cc1cc(F)cc(F)c1)c1ncc(-c2ccc3c(c2)C(=O)NC3)cc1-c1ccc2c(c1)C(=O)NC2 [Compound 10B, (S)—N-(1-(3,5-bis(3-oxoisoindolin-5-yl)pyridin-2-yl)-2-(3,5-difluorophenyl)ethyl)-2-(3-(difluoromethyl)-4,4,7,7-tetrafluoro-4,5,6,7-tetrahydro-1H-indazol-1-yl)acetamide] | 1 |  |  |  |
| CC(C)(O)C#Cc1ccc(-c2cccc3c(=O)[nH]cnc23)c([C@H](Cc2cc(F)cc(F)c2)NC(=O)Cn2nc(C(F)(F)F)c3c2C(F)(F)[C@@H]2C[C@H]32)n1 [Compound 2, 2-((3bS,4aR)-5,5-difluoro-3-(trifluoromethyl)-3b,4,4a,5-tetrahydro-1H-cyclopropa[3,4]cyclopenta[1,2-c]pyrazol-1-yl)-N—((S)-2-(3,5-difluorophenyl)-1-(6-(3-hydroxy-3-methylbut-1-yn-1-yl)-3-(4-oxo-3,4-dihydroquinazolin-8-yl)pyridin-2-yl)ethyl)acetamide] | 79 |  |  |  |
| Cn1nc(NS(C)(=O)=O)c2c(Cl)ccc(-c3ccc(C#CC(C)(C)O)nc3[C@H](Cc3cc(F)cc(F)c3)NC(=O)Cn3nc(C(F)F)c4c3C(F)(F)[C@@H]3C[C@H]43)c21 [Compound 19G, (S)—N-(1-(3-(4 chloro-1-methyl-3-(methylsulfonamido)-1H-indazol-7-yl)-6-(3-hydroxy-3-methylbut-1-ynyl)pyridin-2-yl)-2-(3,5-difluorophenyl)ethyl)-2-((3bS,4aR)-5,5-difluoro-3-(difluoromethyl)-3b,4,4a,5-tetrahydro-1H-cyclopropa[3,4]cyclopenta[1,2-c]pyrazol-1-yl)acetamide] | 97 | 93 |  |  |
| Cn1nc(NS(=O)(=O)C(F)(F)F)c2c(Cl)ccc(-c3ccc(C#CC(C)(C)O)nc3[C@H](Cc3cc(F)cc(F)c3)NC(=O)Cn3nc(C(F)F)c4c3C(F)(F)[C@@H]3C[C@H]43)c21 [Compound 171D, N—((S)-1-(3-(4-chloro-1-methyl-3-(trifluoromethylsulfonamido)-1H-indazol-7-yl)-6-(3-hydroxy-3-methylbut-1-yn-1-yl)pyridin-2-yl)-2-(3,5-difluorophenyl)ethyl)-2-((3b-S,4aR)-3-(difluoromethyl)-5,5-difluoro-3b,4,4a,5-tetrahydro-1H-cyclopropa[3,4]cyclopenta[1,2-c]pyrazol-1-yl)acetamide] |  |  | > 42.5 |  |
| O=C(Cn1nc(C(F)F)c2c1C(F)(F)CCC2(F)F)N[C@@H](Cc1cc(F)cc(F)c1)c1nc(-c2cc[nH]c(=O)c2)ccc1-c1ccc2c(c1)C(=O)NC2 [Compound 12, (S)-2-(3-(difluoromethyl)-4,4,7,7-tetrafluoro-4,5,6,7-tetrahydro-1H-indazol-1-yl)-N-(2-(3,5-difluorophenyl)-1-(2′-oxo-5-(3-oxoisoindolin-5-yl)-1′,2′-dihydro-[2,4′-bipyridin]-6-yl)ethyl)acetamide] | 1 |  |  |  |
| O=C(Cn1nc(C(F)F)c2c1C(F)(F)CCC2(F)F)N[C@@H](Cc1cc(F)cc(F)c1)c1nc(-c2cnc3[nH]ccc3c2)ccc1-c1cnc2[nH]ccc2c1 [Compound 7, (S)—N-(1-(3,6-bis(1H-pyrrolo[2,3-b]pyridin-5-yl)pyridin-2-yl)-2-(3,5-difluorophenyl)ethyl)-2-(3-(difluoromethyl)-4,4,7,7-tetrafluoro-4,5,6,7-tetrahydro-1H-indazol-1-yl)acetamide] | 8 |  |  |  |
| COc1ccc(-c2ccc(C#CC(C)(C)O)nc2[C@H](Cc2cc(F)cc(F)c2)NC(=O)Cn2nc(C(F)F)c3c2C(F)(F)[C@@H]2C[C@H]32)c2c1c(NS(C)(=O)=O)nn2C [Compound 141D, 2-((3b-S,4aR)-3-(difluoromethyl)-5,5-difluoro-3b,4,4a,5-tetrahydro-1H-cyclopropa[3,4]cyclopenta[1,2-c]pyrazol-1-yl)-N—((S)-2-(3,5-difluorophenyl)-1-(6-(3-hydroxy-3-methylbut-1-yn-1-yl)-3-(4-methoxy-1-methyl-3-(methylsulfonamido)-1H-indazol-7-yl)pyridin-2-yl)ethyl)acetamide] | 100 | 100 |  |  |
| CC(C)(O)C#Cc1ccc(-c2ccc(F)c(C(N)=O)c2)c([C@H](Cc2cc(F)cc(F)c2)NC(=O)Cn2nc(C(F)(F)F)c3c2C(F)(F)[C@@H]2C[C@H]32)n1 [Compound 18, 5-(2-((S)-1-(2-((3bS,4aR)-5,5-difluoro-3-(trifluoromethyl)-3b,4,4a,5-tetrahydro-1H-cyclopropa[3,4]cyclopenta[1,2-c]pyrazol-1-yl)acetamido)-2-(3,5-difluorophenyl)ethyl)-6-(3-hydroxy-3-methylbut-1-yn-1-yl)pyridin-3-yl)-2-fluorobenzamide] |  |  |  | Response at 0.2 μM (HIV-IIIb; percent inhibition of virus-induced cell killing at 0.2 μM, comparison with previously published compounds (WO 2013/006738)): 96%; Response at 2 μM (HIV-IIIb; percent inhibition of virus-induced cell killing at 2 μM, comparison with previously published compounds (WO 2013/006738)): 90% |

— patent US20140303164A1, “THERAPEUTIC COMPOUNDS” (Gilead Sciences, Inc., priority 2013, published 2014)
